Columns and labels:
S. aureus 070 = test: Experiment 5: fluorescent substrates in liquid medium, VITEK 2 reading; format: cell-based, Staphylococcus aureus; conditions: substrate 200 mg/l, read over 19 hours
Protocol: (§1) The media below were prepared in the base of the medium described in experiment 1, but in the absence of agar and in the presence of a fluorescent substrate instead of a chromogenic substrate. […] The various liquid media are distributed into the cupules of a support the size of a bank card, specific for the automated VITEK 2 (trademark) system of the company bioMérieux. […] The results, given in table 9 below, represent the incubation time, in hours, required to obtain the maximum level of fluorescence which can be measured by the device: […]

S. aureus 276 [1] = test: as above; format: cell-based, Staphylococcus aureus; conditions: substrate 200 mg/l, read over 19 hours
Protocol: as §1

S. epidermidis 009 = test: as above; format: cell-based, Staphylococcus epidermidis; conditions: substrate 200 mg/l, read over 19 hours
Protocol: as §1

S. xylosus 008 = test: as above; format: cell-based, Staphylococcus xylosus; conditions: substrate 200 mg/l, read over 19 hours
Protocol: as §1

S. saprophyticus 030 = test: as above; format: cell-based, Staphylococcus saprophyticus; conditions: substrate 200 mg/l, read over 19 hours
Protocol: as §1

S. haemolyticus 131 = test: as above; format: cell-based, Staphylococcus haemolyticus; conditions: substrate 200 mg/l, read over 19 hours
Protocol: as §1

S. intermedius 075 [2] = test: as above; format: cell-based, Staphylococcus intermedius; conditions: substrate 200 mg/l, read over 19 hours
Protocol: as §1

S. aureus 276 [3] = test: Experiment 4: naphthol derivative substrates in API galleries, liquid medium; format: cell-based, Staphylococcus aureus; set-up: key to intensity of coloration (enzyme activity mark): the mark 0 corresponds to a negative reaction; marks 1, 2, 3 and 4 indicate intermediate levels of coloration and therefore of enzyme activity; marks 1, 2, 3 and 4 indicate intermediate levels of coloration and therefore of enzyme activity; marks 1, 2, 3 and 4 indicate intermediate levels of coloration and therefore of enzyme activity; marks 1, 2, 3 and 4 indicate intermediate levels of coloration and therefore of enzyme activity; the mark 5 to a reaction of maximum intensity; conditions: for intensity of coloration (enzyme activity mark): S. aureus 276, 4 hours of incubation at 37° C.
Protocol: (§2) The experiment below was carried out in a liquid medium and in the presence of naphthol derivative-based chromogenic substrates.
(§3) The medium and the substrates are distributed into API “galleries” (trademark) produced by the company bioMérieux at Marcy I'Etoile, France.
(§4) These “galleries” constitute a semi-quantitative method for searching for enzyme activities in microorganisms and make it possible to rapidly and simultaneously study nineteen enzyme activities. Each “gallery” comprises twenty cupules in which the solutions containing the enzyme substrates are distributed. The enzyme assays are carried out by distributing 65 μl of bacterial suspension at 5-6 McFarland into each cupule.
(§5) The intensity of coloration for each cupule is examined visually after 4 hours of incubation at 37° C. and after the addition of appropriate reagents: ZYM A (ref.: 70470) and ZYM B (ref.: 70480), which can be obtained from bioMérieux also mentioned above. The intensity of coloration will be directly proportional to the amount of substrate hydrolysed by the enzyme.
(§6) The values for the intensity of coloration are then marked on a results sheet according to the following classification: the mark 0 corresponds to a negative reaction, the mark 5 to a reaction of maximum intensity, marks 1, 2, 3 and 4 indicate intermediate levels of coloration and therefore of enzyme activity. More detailed information on this marking can be found in the API reading scale provided with the “galleries” of the same name.
(§7) The enzyme activity sought and the corresponding naphthol derivative substrates are described in table 6 below: […]

S. saprophyticus 009 = test: as above; format: cell-based, Staphylococcus saprophyticus; set-up: key: the mark 0 corresponds to a negative reaction; marks 1, 2, 3 and 4 indicate intermediate levels of coloration and therefore of enzyme activity; marks 1, 2, 3 and 4 indicate intermediate levels of coloration and therefore of enzyme activity; marks 1, 2, 3 and 4 indicate intermediate levels of coloration and therefore of enzyme activity; marks 1, 2, 3 and 4 indicate intermediate levels of coloration and therefore of enzyme activity; the mark 5 to a reaction of maximum intensity; conditions: 4 hours of incubation at 37° C.
Protocol: as §2, §3, §4, §5, §6, §7

S. epidermidis 103 = test: as above; format: cell-based, Staphylococcus epidermidis; set-up: key: the mark 0 corresponds to a negative reaction; marks 1, 2, 3 and 4 indicate intermediate levels of coloration and therefore of enzyme activity; marks 1, 2, 3 and 4 indicate intermediate levels of coloration and therefore of enzyme activity; marks 1, 2, 3 and 4 indicate intermediate levels of coloration and therefore of enzyme activity; marks 1, 2, 3 and 4 indicate intermediate levels of coloration and therefore of enzyme activity; the mark 5 to a reaction of maximum intensity; conditions: 4 hours of incubation at 37° C.
Protocol: as §2, §3, §4, §5, §6, §7

S. haemolyticus 137 = test: as above; format: cell-based, Staphylococcus haemolyticus; set-up: key: the mark 0 corresponds to a negative reaction; marks 1, 2, 3 and 4 indicate intermediate levels of coloration and therefore of enzyme activity; marks 1, 2, 3 and 4 indicate intermediate levels of coloration and therefore of enzyme activity; marks 1, 2, 3 and 4 indicate intermediate levels of coloration and therefore of enzyme activity; marks 1, 2, 3 and 4 indicate intermediate levels of coloration and therefore of enzyme activity; the mark 5 to a reaction of maximum intensity; conditions: 4 hours of incubation at 37° C.
Protocol: as §2, §3, §4, §5, §6, §7

S. intermedius 075 [4] = test: as above; format: cell-based, Staphylococcus intermedius; set-up: key: the mark 0 corresponds to a negative reaction; marks 1, 2, 3 and 4 indicate intermediate levels of coloration and therefore of enzyme activity; marks 1, 2, 3 and 4 indicate intermediate levels of coloration and therefore of enzyme activity; marks 1, 2, 3 and 4 indicate intermediate levels of coloration and therefore of enzyme activity; marks 1, 2, 3 and 4 indicate intermediate levels of coloration and therefore of enzyme activity; the mark 5 to a reaction of maximum intensity; conditions: 4 hours of incubation at 37° C.
Protocol: as §2, §3, §4, §5, §6, §7

Staphylococcal species = test: Experiment 6: Staphylococcal growth in the presence of inhibitors; format: cell-based, Staphylococcus; conditions: inhibitors added to the medium, concentrations per mixture
α-glucosidase = test: Experiment 6: detection of α-glucosidase activity in the presence of inhibitors; format: cell-based, Staphylococcus; conditions: inhibitors added to the medium, concentrations per mixture
[5] = system: coagulase-positive staphylococcal strains; test: Experiment 5: fluorescent substrates, summary for coagulase-positive strains; format: cell-based, Staphylococcus aureus and Staphylococcus intermedius
Protocol: as §1

[6] = system: coagulase-negative strains; test: Experiment 5: fluorescent substrates, summary for coagulase-negative strains; format: cell-based
Protocol: as §1

| Molecule | hours of incubation required to obtain the maximum level of fluorescence (S. aureus 070) [h] | hours of incubation required to obtain the maximum level of fluorescence (S. aureus 276 [1]) [h] | hours of incubation required to obtain the maximum level of fluorescence (S. epidermidis 009) [h] | hours of incubation required to obtain the maximum level of fluorescence (S. xylosus 008) [h] | hours of incubation required to obtain the maximum level of fluorescence (S. saprophyticus 030) [h] | hours of incubation required to obtain the maximum level of fluorescence (S. haemolyticus 131) [h] | hours of incubation required to obtain the maximum level of fluorescence (S. intermedius 075 [2]) [h] | intensity of coloration (enzyme activity mark) (S. aureus 276 [3]) | intensity of coloration (enzyme activity mark) (S. saprophyticus 009) | intensity of coloration (enzyme activity mark) (S. epidermidis 103) | intensity of coloration (enzyme activity mark) (S. haemolyticus 137) | intensity of coloration (enzyme activity mark) (S. intermedius 075 [4]) | further results |
| --- | --- | --- | --- | --- | --- | --- | --- | --- | --- | --- | --- | --- | --- |
| Cc1cc(=O)oc2cc(O[C@@H]3O[C@H](CO)[C@@H](O)[C@H](O)[C@H]3O)ccc12 [4-MU-β-GLU, 4-methylumbelliferyl-β-D-glucoside] | 4 | 6 | 8 | 9 | 9 | 7 | 7 |  |  |  |  |  |  |
| OC[C@H]1O[C@H](Oc2ccc3cc(Br)ccc3c2)[C@H](O)[C@@H](O)[C@H]1O [No 3, 6-bromo-2-naphthyl-α-D-galactopyranoside] |  |  |  |  |  |  |  | 0 | 0 | 0 | 0 | 0 |  |
| OC[C@H]1O[C@@H](Oc2ccc3ccccc3c2)[C@H](O)[C@@H](O)[C@H]1O [No 4, 2-naphthyl-β-D-galactopyranoside] |  |  |  |  |  |  |  | 0 | 3 | 0 | 0 | 3 |  |
| Cc1cc(=O)oc2cc(O[C@@H]3O[C@H](CO)[C@H](O)[C@H](O)[C@H]3O)ccc12 [4-MU-β-GAL, 4-methylumbelliferyl-β-D-galactoside] | 3 | 3 | 4 | 5 | 12 | 12 | 2 |  |  |  |  |  |  |
| C[C@H]1[C@H](NC(=O)/C(=N\OC(C)(C)C(=O)O)c2csc(N)n2)C(=O)N1S(=O)(=O)O [aztreonam] |  |  |  |  |  |  |  |  |  |  |  |  | Staphylococcal growth (Staphylococcal species): does not disturb the bacterial growth; effect on detection/expression of α-glucosidase (α-glucosidase): very slightly decreased |
| naphthol-β-D-glucuronide [No 5] |  |  |  |  |  |  |  | 0 | 0 | 0 | 0 | 0 |  |
| OC[C@H]1O[C@H](Oc2ccc3ccccc3c2)[C@H](O)[C@@H](O)[C@@H]1O [No 6, 2-naphthyl-α-D-glucopyranoside] |  |  |  |  |  |  |  | 5 | 1 | 1 | 2 | 1 | α-glucosidase activity (S. aureus 276 [3]; Staphylococcus aureus strain, API gallery): strongly expressed |
| Cc1cc(=O)oc2cc(O[C@@H]3O[C@H](C(=O)O)[C@@H](O)[C@H](O)[C@H]3O)ccc12 [4-MU-β-GUR, 4-methylumbelliferyl-β-D-glucuronide] | 3 | 3 | 4 | 5 | 19 | 19 | 2 |  |  |  |  |  |  |
| Cc1cc(=O)oc2cc(O[C@H]3O[C@H](CO)[C@@H](O)[C@H](O)[C@H]3O)ccc12 [4-MU-α-GLU, 4-methylumbelliferyl-α-D-glucoside] | 8 | 7 | 19 | 11 | 19 | 19 | 5 |  |  |  |  |  | incubation time to obtain a maximum level of fluorescence [5]: < 8 h; incubation time to obtain a maximum level of fluorescence [6]: > 10 h |
| O=P(O)(O)Oc1ccc2ccccc2c1 [No 2, 2-naphthyl-phosphate] |  |  |  |  |  |  |  | 2 | 1 | 3 | 0 | 4 |  |
| OC[C@H]1O[C@@H](Oc2ccc3cc(Br)ccc3c2)[C@H](O)[C@@H](O)[C@@H]1O [No 7, 6-bromo-2-naphtyl-β-D-glucopyranoside] |  |  |  |  |  |  |  | 0 | 0 | 0 | 0 | 0 |  |
| colistin |  |  |  |  |  |  |  |  |  |  |  |  | Staphylococcal growth (Staphylococcal species): virtually no effect |
| [Cl-].[Li+] [LiCl, lithium chloride] |  |  |  |  |  |  |  |  |  |  |  |  | Staphylococcal growth (Staphylococcal species): decreases |

— patent publication US7807439B2, “Staphylococcus aureus-specific detection media and identifying and/or counting method using same” (Biomerieux S.A., priority 2001, dated 2010)
